From patent publication US11413278B2, “Compounds and methods for promoting stress resistance” (priority 2015, dated 2022)
“Also recorded” adds a separate entry of the source. Read-outs that look alike come from different tables or passages of the source.

What was measured:
mTOR = mTOR inhibition (RPS6 phosphorylation status), In-Cell Western; format: cell-based, human
How it was run: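 Read-out is In-Cell Western near-infrared imaging of phospho-RPS6 (Ser-235/236) against total RPS6, using overnight 4° C primary staining and DyLight 680/800 secondaries. Compounds were given to WI-38 cells for 24 hrs at three doses: 5, 10 and 20 μM.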

WI-38 cells = conditions: for No H2O2 stress treatment, at 10 uM (fold change): normalized ATP measurement; for Assay 1: H2O2-resistant: YES/NO, if NO, possibly due to repeated freezing/thawing of stocks
[1] = test system: PC12 cells expressing poly(Q)103-Htt-EGFP; experiment: Poly(Q) toxicity & viability analysis (cellular model of Huntington's disease); format: cell-based, rat; conditions: for M = Huntington's poly-Q toxicity attenuation: score; for K = Huntington's poly-Q toxicity attenuation: summary score
How it was run: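 Readout is CellTiter-Glo ATP content measured after 48 hrs. Cells are a PC12 line stably expressing inducible poly(Q)103-Htt-EGFP, where induction produces toxic aggregates.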

NRF2 [2] = experiment: in vitro; format: cell-based, human; conditions: for NRF2-dependency for H2O2-resistance, at 10 uM - with H2O2, 2nd experiment: experiment 2 (2nd); for Assay 17: NRF2-dependency for H2O2-resistance: YES/NO; for NRF2-dependency of H2O2-resistance (NRF2 siRNA knockdown): at least 2 of 3 independent experiments
NRF2 [3] = experiment: qPCR analysis of NRF2-regulated genes; format: cell-based, human; conditions: for fold induction at 10 µM: Homo sapiens
How it was run: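 Expression of HMOX1, NQO1, GCLC and GSTM1 measured by qPCR relative to B2M, PPIA and GAPDH. Cells were WI-38 fibroblasts exposed 24 hrs to 10 μM compound, with RNA and cDNA prepared via Cells-to-Ct. Where stated, cells were first transfected 36 hrs with FOXO3 or NRF2 siRNA at 10 nM.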

[4] = WI-38 cells, 10 μM, (*) = compromised ability to protect cells from H2O2, could be due to stability issue
[5] = asterisks indicate the loss of the ability to protect cells from H2O2 over time
[6] = read-out: Est. ED50, dose response 0.6-20 μM, H2O2-resistance
[7] = 10 uM, with H2O2, NRF2 knockdown in WI-38 cells, YES = resistance reduced by at least 50%, partial = 25% to 50%
[8] = 24 h, Assay 12(o), at 10 uM, qPCR, read-out: Induction of NRF2-regulated genes: HMOX1 normalized fold-change
[9] = 24 h, Assay 12(o), at 10 uM, qPCR, read-out: Induction of NRF2-regulated genes: NQO1 normalized fold-change
[10] = rounded fold change, WI-38 cells, 10 μM, 24 hrs (RP11 for Gr-1D, RP29 for Gr-4D), read-out: Summary of effects on NRF2-regulated genes: HMOX1
[11] = rounded fold change, WI-38 cells, 10 μM, 24 hrs (RP29 for Gr-4D), read-out: Summary of effects on NRF2-regulated genes: NQO1
[12] = 10 μM, 24 hrs, WI-38 cells, qPCR, normalized to B2M, n = 4, read-out: HMOX1 expression, normalized fold change (NRF2-regulated gene)
[13] = 10 μM, 24 hrs, WI-38 cells, qPCR, normalized to B2M, n = 4, read-out: NQO1 expression, normalized fold change (NRF2-regulated gene)
[14] = WI-38 cells, 10 μM, 24 hrs, n=4, qPCR normalized by B2M, read-out: GCLC Normalized fold change
[15] = WI-38 cells, 10 μM, 24 hrs, n=4, qPCR normalized by B2M, read-out: GSTM1 Normalized fold change
[16] = WI-38 cells, 10 μM, 24 hrs, n=4, qPCR normalized by B2M, read-out: HMOX1 Normalized fold change
[17] = WI-38 cells, 10 μM, 24 hrs, n=4, qPCR normalized by B2M, read-out: NQO1 Normalized fold change
[18] = derived from dose response curves, 0.6-20 uM, H2O2-resistance of WI-38 cells
[19] = 24 h, Assay 12(o), at 10 uM, qPCR, read-out: Induction of NRF2-regulated genes: GCLC normalized fold-change
[20] = rounded fold change, WI-38 cells, 10 μM, 24 hrs, read-out: Summary of effects on NRF2-regulated genes: GCLC
[21] = 10 μM, 24 hrs, WI-38 cells, qPCR, normalized to B2M, n = 4, read-out: GCLC expression, normalized fold change (NRF2-regulated gene)

## O=C(/C=C/c1cn(-c2ccccc2)nc1-c1cccnc1)c1ccccc1 [Gr-6B]
mTOR; 2-point score
  G = mTOR down-regulation: 0
mTOR; summary score
  G = mTOR down-regulation: 0
WI-38 cells; [4]
  H2O2-resistant: YES
WI-38 cells; WI-38 cells
  No H2O2 stress treatment, at 10 uM (fold change): 1.10 fold change
WI-38 cells
  Assay 1: H2O2-resistant: YES
WI-38 cells; [5]
  H2O2-resistant: YES
WI-38 cells; [6]
  EC50: 45.1 µM
[1]; 2.5 μM, 5 μM, 10 μM and 20 μM
  Viability of PC12 cells upon induction of toxic poly(Q)103-Htt-EGFP aggregates: consistently increased the viability
[1]; 10 uM, YES/NO
  Assay 20: Huntington's poly-Q toxicity attenuation: YES
[1]
  M = Huntington's poly-Q toxicity attenuation: 1
  K = Huntington's poly-Q toxicity attenuation: 1
NRF2 [2]; 10 uM, with H2O2
  NRF2-dependency for H2O2-resistance, at 10 uM - with H2O2, 2nd experiment: 2nd, partial.
NRF2 [2]; 10 uM, experiment 3, with & without H2O2
  NRF2-dependency for H2O2-resistance, at 10 uM (experiment 3) - with & without H2O2: YES
NRF2 [2]; 10 uM, with & without H2O2, NRF2 knockdown in WI-38 cells, YES = resistance reduced by at least 50%, partial = 25% to 50%
  NRF2-dependency for H2O2-resistance (experiment 3): YES
NRF2 [2]; [7]
  NRF2-dependency for H2O2-resistance, 2nd experiment: partial.
NRF2 [2]; 10 uM
  Assay 17: NRF2-dependency for H2O2-resistance: YES
NRF2 [2]
  NRF2-dependency of H2O2-resistance (NRF2 siRNA knockdown): significantly attenuate
NRF2 [2]; score
  J = NRF2-dependency for H2O2-resistance: 1
NRF2 [2]; summary score
  J = NRF2-dependency for H2O2-resistance: 1
NRF2 [3]; 2-point score
  F = Potential NRF2 Activation: 2
NRF2 [3]; Assay 13(p)
  Potential NRF2 Activation (>=2 target genes induced, by >=1.5-fold): YES
NRF2 [3]; [8]
  fold induction at 10 µM: 1.88
NRF2 [3]; [9]
  fold induction at 10 µM: 1.52
NRF2 [3]; [10]
  fold induction at 10 µM: 1.88
NRF2 [3]; [11]
  fold induction at 10 µM: 1.52
NRF2 [3]; 10 μM, 24 hrs, WI-38, read-out: Expression of at least two NRF2 target genes
  fold induction at 10 µM: > 1.5
NRF2 [3]; [12]
  fold induction at 10 µM: 1.88
NRF2 [3]; [13]
  fold induction at 10 µM: 1.52
NRF2 [3]; [14]
  fold induction at 10 µM: 0.797
NRF2 [3]; [15]
  fold induction at 10 µM: 1.22
NRF2 [3]; [16]
  fold induction at 10 µM: 1.88
NRF2 [3]; [17]
  fold induction at 10 µM: 1.52
NRF2 [3]; summary score
  F = Potential NRF2 Activation: 2

## N=C1S/C(=C\c2cn(-c3ccccc3)nc2-c2cccs2)C(=O)N1c1nccs1 [Gr-6C]
mTOR; 2-point score
  G = mTOR down-regulation: 0
mTOR; summary score
  G = mTOR down-regulation: 0
WI-38 cells; [4]
  H2O2-resistant: YES (*)
WI-38 cells; WI-38 cells
  No H2O2 stress treatment, at 10 uM (fold change): .096 fold change
WI-38 cells; [5]
  H2O2-resistant: YES (*)
WI-38 cells; [18]
  EC50: 16.2 µM
WI-38 cells; [6]
  EC50: 48.5 µM
[1]
  M = Huntington's poly-Q toxicity attenuation: 0
  K = Huntington's poly-Q toxicity attenuation: 0
NRF2 [2]; 10 uM, with H2O2
  NRF2-dependency for H2O2-resistance, at 10 uM - with H2O2, 2nd experiment: 2nd, partial.
NRF2 [2]; [7]
  NRF2-dependency for H2O2-resistance, 2nd experiment: partial.
NRF2 [2]; score
  J = NRF2-dependency for H2O2-resistance: 0
NRF2 [2]; summary score
  J = NRF2-dependency for H2O2-resistance: 0
NRF2 [3]; 2-point score
  F = Potential NRF2 Activation: 0
NRF2 [3]; [19]
  fold induction at 10 µM: 0.33
NRF2 [3]; [8]
  fold induction at 10 µM: 2.09
NRF2 [3]; [10]
  fold induction at 10 µM: 2.09
NRF2 [3]; [20]
  fold induction at 10 µM: 0.33
NRF2 [3]; [21]
  fold induction at 10 µM: 0.33
NRF2 [3]; [12]
  fold induction at 10 µM: 2.09
NRF2 [3]; [14]
  fold induction at 10 µM: 0.331
NRF2 [3]; [15]
  fold induction at 10 µM: 0.914
NRF2 [3]; [16]
  fold induction at 10 µM: 2.09
NRF2 [3]; [17]
  fold induction at 10 µM: 0.87
NRF2 [3]; summary score
  F = Potential NRF2 Activation: 0

## O=C(NCc1cccnc1)/C(=C\c1cccc(Oc2ccccc2)c1)S(=O)(=O)c1ccccc1 [Gr-7A]
mTOR; 2-point score
  G = mTOR down-regulation: 2
mTOR; Assay 14(q), at 5 uM, 10 uM & 20 uM
  mTOR down-regulation by p-RPS6 assays: YES
mTOR; Exp. 1, In-Cell Western, n=4
  Exp. 1, normalized reduction in p-RPS6/RPS6 ratio: ~61% (−), at 20 μM
mTOR; Exp. 1, at 10 μM, In-Cell Western, n=4
  Exp. 1, normalized reduction in p-RPS6/RPS6 ratio: ~60% (−), at 10 μM;
mTOR; Exp. 2, at 10 μM, In-Cell Western, n=4
  Exp. 2, normalized reduction in p-RPS6/RPS6 ratio: ~75% (−), at 10 μM
mTOR; Exp. 3, In-Cell Western, n=4
  Exp. 3, normalized reduction in p-RPS6/RPS6 ratio: ~92% (−), at 20 μM
mTOR; Exp. 3, at 5 μM, In-Cell Western, n=4
  Exp. 3, normalized reduction in p-RPS6/RPS6 ratio: ~50% (−), at 5 μM;
mTOR; Exp. 3, at 10 μM, In-Cell Western, n=4
  Exp. 3, normalized reduction in p-RPS6/RPS6 ratio: ~89% (−), at 10 μM;
mTOR; In-Cell Western
  mTOR inhibition (p-RPS6/RPS6), qualitative: mTOR-inhibiting activities; also recorded: consistently reduced the ratios
mTOR; summary score
  G = mTOR down-regulation: 2
WI-38 cells; [4]
  H2O2-resistant: YES (*)
WI-38 cells; WI-38 cells
  No H2O2 stress treatment, at 10 uM (fold change): 0.78 fold change
WI-38 cells
  Assay 1: H2O2-resistant: YES
WI-38 cells; [5]
  H2O2-resistant: YES (*)
WI-38 cells; [18]
  EC50: 16.1 µM
WI-38 cells; [6]
  EC50: 58.4 µM
[1]
  M = Huntington's poly-Q toxicity attenuation: 0
  K = Huntington's poly-Q toxicity attenuation: 0
NRF2 [2]
  Survival of NRF2 siRNA-transfected cells in the absence of H2O2: could reduce the survival
  NRF2-dependency of H2O2-resistance (NRF2 siRNA knockdown): significantly attenuate
NRF2 [2]; 10 uM, experiment 1 (1st), with H2O2
  NRF2-dependency for H2O2-resistance, at 10 uM - with H2O2, 1st experiment: 1st, YES;
NRF2 [2]; 10 uM, with H2O2
  NRF2-dependency for H2O2-resistance, at 10 uM - with H2O2, 2nd experiment: 2nd, YES.
NRF2 [2]; [7]
  NRF2-dependency for H2O2-resistance, 1st experiment: YES;
  NRF2-dependency for H2O2-resistance, 2nd experiment: YES.
NRF2 [2]; 10 uM
  Assay 17: NRF2-dependency for H2O2-resistance: YES
NRF2 [2]; human, 24 h, 10 uM
  viability of non-stressed cells, reduced by: by 84%)
NRF2 [2]; score
  J = NRF2-dependency for H2O2-resistance: 1
NRF2 [2]; summary score
  J = NRF2-dependency for H2O2-resistance: 1
NRF2 [3]; 2-point score
  F = Potential NRF2 Activation: 0
NRF2 [3]; [19]
  fold induction at 10 µM: 0.6
NRF2 [3]; [8]
  fold induction at 10 µM: 15.2
NRF2 [3]; [9]
  fold induction at 10 µM: 0.78
NRF2 [3]; [10]
  fold induction at 10 µM: 15.2
NRF2 [3]; [11]
  fold induction at 10 µM: 0.78
NRF2 [3]; [20]
  fold induction at 10 µM: 0.6
NRF2 [3]; [21]
  fold induction at 10 µM: 0.6
NRF2 [3]; [12]
  fold induction at 10 µM: 15.2
NRF2 [3]; [13]
  fold induction at 10 µM: 0.78
NRF2 [3]; [14]
  fold induction at 10 µM: 0.602
NRF2 [3]; [15]
  fold induction at 10 µM: 1.09
NRF2 [3]; [16]
  fold induction at 10 µM: 15.2
NRF2 [3]; [17]
  fold induction at 10 µM: 0.779
NRF2 [3]; summary score
  F = Potential NRF2 Activation: 0
